Here are results for 19 compounds from patent EP4644383A1 (Jiangsu Yahong Meditech Co., Ltd., priority 2022, dated 2024).

Read-outs that look alike come from different tables or passages of the source.

Assay [1] relates to RT112 cells (bladder cancer cells). Kind of assay: Inhibition of proliferation activity of RT112 cells (CellTiter-Glo). Type of assay: cell-based. The note with it: Homo sapiens, read-out: IC50 (nM) RT112. The method, then: (§1) The present experiment used CellTiter-Glo® Luminescent Cell Viability Assay (Promega: G7573) kit, which was a homogeneous cell viability detection method and determined the cell viability of cultured cells by quantifying ATP. • ① RT112 cells were cultured in MEM complete medium (Gibco: 51200038) (10% FBS (Gibco: 10091-148)+1% Pen Strep (Gibco: 15140122)+1% NEAA (Gibco: 11140050)) under the condition of 37°C and 5% CO2. • (2) The cells in logarithmic growth phase were harvested and counted using a […]. The trypan blue exclusion method was used to detect cell viability to ensure the cell viability was above 90%. • ③ The cell density was adjusted using MEM complete medium, and then, the cells were seeded into a 96-well cell culture plate at 90 µL/well with a total of 3000 cells. • ④ The 96-well plate with the cells was placed under the condition of 37°C and 5% CO2 to be cultured for 24 hours. • ⑤ 24 hours later, a 10-fold drug solution was prepared starting from a maximum drug concentration of 10 µM and 4-fold serially diluted into10 concentrations. Then, 10 µL of each of the serially diluted compounds was transferred to the corresponding experimental wells of a 96-well cell plate, with two replicates for each drug concentration. • ⑥ The 96-well plate with the cells that had been treated with the drugs was placed under the condition of 37°C and 5% CO2 to be further cultured for 72 hours, and then analyzed by CTG. • ⑦ The CTG reagent was melted and the cell plate was equilibrated to room temperature for 30 minutes. • ⑧ 50 µL of the CTG solution was added to each well. • ⑨ The cell plate was shaken on an orbital shaker for 5 minutes to lyse the cells. • ⑩ The cell plate was placed at room temperature for 20 minutes to stabilize the luminescence signal. The luminescence values were read to collect the data. • ⑪ The data were analyzed using XLFit excel plugin version 5.5.0.5, and fitted with non-linear S-curve regression to obtain the dose-response curves and thus calculate the IC50 values. Y = Bottom + (Top-Bottom)/((1+(IC50/X))^(∧) HillSlope [formula]
(§2) "Top" refers to the maximum response, "Bottom" refers to the minimum response, and "HillSlope" refers to the slope of the curve.
(§3) "Max" represents the average value of the cell+DMSO control, and "Min" represents the average value of the medium control+DMSO.

The test system of a further assay is RT112-FGFR3-V555M cells. Briefly: Inhibition of proliferation activity of RT112-FGFR3-V555M cells (CellTiter-Glo). It is filed as cell-based. The note with it: read-out: IC50 (nM) RT112-FGFR3-V555M. On the procedure:
as §1, with “RT112-FGFR3-V555M” for “RT112”, “5000” for “3000”
as §2, §3

For the next assay, the target named is T1, FGFR1 (Homo sapiens, UniProt P11362).
T1 construct: cytoplasmic domain [398-822 (terminal) amino acids]; purchased Carna 08-133
T1 sequence (P11362 398-822): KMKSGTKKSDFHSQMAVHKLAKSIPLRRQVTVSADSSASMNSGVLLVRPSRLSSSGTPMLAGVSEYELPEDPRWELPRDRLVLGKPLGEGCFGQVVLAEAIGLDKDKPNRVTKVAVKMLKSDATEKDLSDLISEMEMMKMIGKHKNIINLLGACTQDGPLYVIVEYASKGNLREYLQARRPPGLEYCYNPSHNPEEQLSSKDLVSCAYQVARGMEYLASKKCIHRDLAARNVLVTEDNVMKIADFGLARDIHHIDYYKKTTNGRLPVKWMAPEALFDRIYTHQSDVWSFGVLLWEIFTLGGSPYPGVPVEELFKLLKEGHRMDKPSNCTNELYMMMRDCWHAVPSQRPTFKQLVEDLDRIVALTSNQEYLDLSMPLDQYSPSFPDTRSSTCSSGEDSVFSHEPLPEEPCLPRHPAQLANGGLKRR
Kind of assay: FGFR1 kinase activity inhibition assay (LanthaScreen TR-FRET). Type of assay: biochemical. A digest of the protocol: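 Emission ratio 520 nm/495 nm by TR-FRET after stopping reaction with 10 mM EDTA and 60 min incubation at 22°C. Inhibition normalized between no-enzyme (min) and DMSO (max) controls, then fitted to a four-parameter curve (Top, Bottom, HillSlope).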

Setting [2] is: FGFR1 kinase, TR-FRET, read-out: IC50 (nM) FGFR1.
The mark [3] stands for this setting: RT-112, RT112 cells, 72 hours, CTG.
The mark [4] stands for this setting: RT112-FGFR3-V555M cells, 72 hours, CTG.

As for `C[C@@H](Oc1ccc2[nH]nc(-c3ccc(S(C)(=N)=O)nc3)c2c1)c1c(Cl)cncc1Cl` (stereo partly drawn) [Comparative Example 85, (5-(5-((R)-1-(3,5-dichloropyridin-4-yl)ethoxy)-1H-indazol-3-yl)pyridin-2-yl)(imino)(methyl)-sulfanone, reference compound], the IC50 in assay [1] (RT-112, 72 h) was determined as 58.8 nM; with RT112-FGFR3-V555M cells (72 h) it was 334 nM.

With `C[C@@H](Oc1cc(F)c2[nH]nc(-c3cnn(CCN4CCOCC4)c3)c2c1)c1c(Cl)cncc1Cl` [Example 12, (R)-4-(2-(4-(5-(1-(3,5-dichloropyridin-4-yl)ethoxy)-7-fluoro-1H-indazol-3-yl)-1H-pyrazol-1-yl)ethyl)morph oline], the IC50 is 10 to 100 nM at FGFR1 (setting [2]) and 43.1 nM in assay [1] (setting [3]).

Take `C[C@@H](Oc1ccc2[nH]nc(-c3cnn(C)c3)c2n1)c1c(Cl)cncc1Cl` [Example 29, (R)-5-(1-(3,5-dichloropyridin-4-yl)ethoxy)-3-(1-methyl-1H-pyrazol-4-yl)-1H-pyrazolo[4,3-b]pyridine]: the IC50 is 1 to 10 nM at FGFR1 (setting [2]) and 3.6 nM in assay [1] (setting [3]).

`C[C@@H](Oc1ccc2[nH]nc(-c3cnn(CCN4CCN(C)C(=O)C4)c3)c2n1)c1c(Cl)cncc1Cl` [Example 54, (R)-4-(2-(4-(5-(1-(3,5-dichloropyridin-4-yl)ethoxy)-1H-pyrazolo[4,3-b]pyridin-3-yl)-1H-pyrazol-1-yl)ethyl)-1-methylpiperazin-2-one]: the half-maximal inhibitory concentration (IC50) was 1 to 10 nM on FGFR1 (setting [2]) and 14 nM in assay [1] (setting [3]).

`C[C@@H](Oc1ccc2[nH]nc(-c3cnn(CCN4CCS(=O)(=O)CC4)c3)c2n1)c1c(Cl)cncc1Cl` [Example 55, (R)-4-(2-(4-(5-(1-(3,5-dichloropyridin-4-yl)ethoxy)-1H-pyrazolo[4,3-b]pyridin-3-yl)-1H-pyrazol-1-yl)ethyl)thiomorph oline 1,1-dioxide]: the IC50 was 10 to 100 nM on FGFR1 (setting [2]) and 15.9 nM in assay [1] (setting [3]).

With `CC(Oc1ccc2[nH]nc(-c3cnn(C)c3)c2c1)c1cccc2ncccc12` (stereo not shown) [Example 88, 5-(1-((3-(1-methyl-1H-pyrazol-4-yl)-1H-indazol-5-yl)oxy)ethyl)quin oline], the IC50 was 10 to 100 nM on FGFR1 (setting [2]) and 167 nM in assay [1] (setting [3]).

With `CC(Oc1ccc2[nH]nc(-c3cnn(C)c3)c2c1)c1cccc2nccnc12` (stereo not shown) [Example 92, 5-(1-((3-(1-methyl-1H-pyrazol-4-yl)-1H-indazol-5-yl)oxy)ethyl)quin oxaline], the IC50 at FGFR1 (setting [2]) was 1 to 10 nM; in assay [1] (setting [3]) it was 24.3 nM.

On to `Cc1ccc2ncccc2c1C(C)Oc1ccc2[nH]nc(-c3cnn(C)c3)c2c1` (stereo not shown) [Example 95, 6-methyl-5-(1-((3-(1-methyl-1H-pyrazol-4-yl)-1H-indazol-5-yl)oxy)ethyl)quinolinee], for which the IC50 is 10 to 100 nM against FGFR1, 23.4 nM in assay [1] (setting [3]) and 110 nM in the assay on RT112-FGFR3-V555M cells (setting [4]).

For `CC(Oc1ccc2[nH]nc(-c3cnn(C)c3)c2c1)c1cccn2ncnc12` (stereo not shown) [Example 101, 8-(1-((3-(1-methyl-1H-pyrazol-4-yl)-1H-indazol-5-yl)oxy)ethyl)-[1,2,4]triazolo[1,5-a]pyridine], the IC50 at FGFR1 (setting [2]) is 10 to 100 nM; in assay [1] (setting [3]), 85 nM.

For `CC(Oc1ccc2[nH]nc(-c3cnn(C)c3)c2c1)c1c(C(F)F)ccc2ncccc12` (stereo not shown) [Example 127, 6-(difluoromethyl)-5-(1-((3-(1-methyl-1H-pyrazol-4-yl)-1H-indazol-5-yl)oxy)ethyl)quinoline], the values for the half-maximal inhibitory concentration (IC50) (on FGFR1 (setting [2]); in assay [1] (setting [3]); in the assay with RT112-FGFR3-V555M cells (setting [4])) were above 100 nM, 25.5 nM and 118 nM, respectively.

As for `CC(Oc1ccc2[nH]nc(-c3cnn(C)c3)c2c1)c1c(CF)ccc2ncccc12` (stereo not shown) [Example 130, 6-(fluoromethyl)-5-(1-((3-(1-methyl-1H-pyrazol-4-yl)-1H-indazol-5-yl)oxy)ethyl)q uinoline], the IC50 on FGFR1 (setting [2]) is 10 to 100 nM; in assay [1] (setting [3]) it was 37.9 nM; in the assay on RT112-FGFR3-V555M cells (setting [4]) it was 152 nM.

For the compound `CC(Oc1ccc2[nH]nc(-c3cnn(C)c3)c2c1)c1cc(Cl)cc2nccnc12` (stereo not shown) [Example 136, 7-chloro-5-(1-((3-(1-methyl-1H-pyrazol-4-yl)-1H-indazol-5-yl)oxy)ethyl)qu inoxaline], the values for the IC50 (on FGFR1 (setting [2]); in assay [1] (setting [3]); in the assay with RT112-FGFR3-V555M cells (setting [4])) were 10 to 100 nM, 47.5 nM and 119 nM, respectively.

Regarding `Cc1cc2nccnc2c(C(C)Oc2ccc3[nH]nc(-c4cnn(C)c4)c3c2)n1` (stereo not shown) [Example 183, 7-methyl-5-(1-((3-(1-methyl-1H-pyrazol-4-yl)-1H-indazol-5-yl)oxy)ethyl)pyridino [3,4-b]pyrazine], the IC50 at FGFR1 (setting [2]) is 10 to 100 nM; in assay [1] (setting [3]) it was 9.7 nM; in the assay on RT112-FGFR3-V555M cells (setting [4]) it was 10.4 nM.

In the case of `COCC(=O)N1CC(n2cc(-c3n[nH]c4ccc(OC(C)c5cccc6nccnc56)cc34)cn2)C1` (stereo not shown) [Example 188, 2-methoxy-1-(3-(4-(5-(1-(quinoxalin-5-yl)ethoxy)-1H-indazol-3-yl)-1H-pyrazol-1-yl)azetidin-1-yl)ethan-1-one], the IC50 on FGFR1 (setting [2]) was 10 to 100 nM; in assay [1] (setting [3]) it was 10.7 nM; in the assay on RT112-FGFR3-V555M cells (setting [4]), 70.1 nM.

Consider `CC(Oc1ccc2[nH]nc(-c3cnn(C4CN(C(=O)C(C)(C)O)C4)c3)c2c1)c1cccc2nccnc12` (stereo not shown) [Example 190, 2-hydroxy-2-methyl-1-(3-(4-(5-(1-(quinoxalin-5-yl)ethoxy)-1H-indazol-3-yl)-1H-pyrazol-1-yl)azetidin-1-yl)propan-1-one], for which the values for the IC50 (on FGFR1 (setting [2]); in assay [1] (setting [3]); in the assay on RT112-FGFR3-V555M cells (setting [4])) were 10 to 100 nM, 18.6 nM and 81.6 nM, respectively.

Regarding `CC(=O)N1CC(n2cc(-c3n[nH]c4ccc(OC(C)c5cccc6nccnc56)cc34)cn2)C1` (stereo not shown) [Example 218, 1-(3-(4-(5-(1-(quinoxalin-5-yl)ethoxy)-1H-indazol-3-yl)-1H-pyrazol-1-yl)azetidin-1-yl)ethan-1-one], the figures for the IC50 (at FGFR1 (setting [2]); in assay [1] (setting [3]); in the assay with RT112-FGFR3-V555M cells (setting [4])) were 10 to 100 nM, 16.7 nM and 64.7 nM, respectively.

With `CC(Oc1cc2c(-c3cnn(C)c3)n[nH]c2cc1F)c1cc(Cl)cc2nccnc12` (stereo not shown) [Example 227, 7-chloro-5-(1-((6-fluoro-3-(1-methyl-1H-pyrazol-4-yl)-1H-indazol-5-yl)oxy)ethyl)qu inoxaline], the IC50 on FGFR1 (setting [2]) is 1 to 10 nM; in assay [1] (setting [3]), 34.5 nM; with RT112-FGFR3-V555M cells (setting [4]), 128 nM.

In the case of `CC(Oc1ccc2[nH]nc(-c3cnn(C)c3)c2c1)c1nc(C(F)F)cc2nccnc12` (stereo not shown) [Example 236, 7-(difluoromethyl)-5-(1-((3-(1-methyl-1H-pyrazol-4-yl)-1H-indazol-5-yl)oxy)ethyl)pyridino[3,4-b]pyrazine], the 50% inhibitory concentration (IC50) was 1 to 10 nM at FGFR1 (setting [2]), 15.5 nM in assay [1] (setting [3]) and 38.9 nM in the assay on RT112-FGFR3-V555M cells (setting [4]).

With `[2H]C([2H])([2H])c1cc2nccnc2c(C(C)Oc2ccc3[nH]nc(-c4cnn(C)c4)c3c2)n1` (stereo not shown) [Example 241], the IC50 against FGFR1 is 1 to 10 nM; in assay [1] (setting [3]), 13.5 nM; in the assay on RT112-FGFR3-V555M cells (setting [4]), 18.2 nM.

As a reminder, the IC50 is the concentration needed to halve the response being measured.
